The record followed here is US11064658B2, “Method for inducing plants to increase their flavonoid compound content” (Industrial Technology Research Institute, priority 2018, dated 2021).

Holding throughout (type): in vivo
Data set [1] has as its system Chrysanthemum morifolium. Description: Zn ion stimulation for 40 days, solid medium culture; flavonoid glycoside contents by HPLC. To be noted: whole plants, Zn ion 15, 30, 45 mM, compared to control group (3 mM). How it is done:
1. Different amounts of ZnSO4 were added to the formulation of Table 2 shown in the following to respectively form MS solid mediums with different Zn ion final concentration of 3 mM (control group), 15 mM, 30 mM and 45 mM for ready for use. 2. A terminal bud of a tissue culture seedling of Chrysanthemum morifolium (young shoot of Chrysanthemum morifolium) was cut and inserted to the solid medium prepared above (since a rooted plant was not easy to insert into solid medium, the experiment was performed in this way) to perform the solid medium culture. Since Zn is mainly absorbed by the roots of plants, the evaluation only could start after the plant had grown roots. The Zn element could be absorbed and utilized by the plant only after the plant had grown roots. Plants were allowed to absorb zinc during growth and development, thereby causing changes in physiological and compositional components in the plants. 3. After being cultured for 40 days, the morphological changes of the plants were observed and the samples of whole plants were collected. Then, the collected samples were lyophilized. 4. After the lyophilization, extraction was performed on the whole plant of Chrysanthemum morifolium. […]

The subject of data set [2] is Chrysanthemum morifolium. Description: Al ion stimulation for different lengths of time, hydroponic culture; flavonoid glycoside contents by HPLC. Particulars: whole plants, AlCl3 70, 250, 350 μM, 48, 72, 96 hours, compared to control group, had a dose effect. How it is done:
(§1) 1. MS liquid medium was prepared based on the formulation of Table 1 shown in the following. 2. Different amounts of AlCl3 solution were added to the MS liquid medium prepared above to respectively form MS liquid mediums with AlCl3 final concentrations of 0 μM (control group), 70 μM, 250 μM and 350 μM for ready for use. 3. Tissue culture seedlings of Chrysanthemum morifolium (young shoot of Chrysanthemum morifolium) were taken out from solid culture tubes. After that, the solid medium on the root of the plants was washed with water, and the whole plants were inserted into test tubes containing the MS liquid medium with different AlCl3 final concentration prepared above, and the roots of the plants were immersed in the liquid medium. Finally, the above-ground parts of the plants were covered with sealed bags to protect the cuticula on the surfaces of the plant leaves to prevent rapid evapotranspiration of water. 4. After being immersed for 48, 72 and 96 hours, the morphological changes of the plants were observed and the samples of whole plants were collected. Then, the collected samples were lyophilized. 5. After the lyophilization, extraction was performed on the whole plant of Chrysanthemum morifolium. […]

Data set [3] has as its system Chrysanthemum morifolium. Description: Al ion stimulation at different concentrations for 72 hours, hydroponic culture; flavonoid glycoside contents by HPLC. To be noted: whole plants, AlCl3 100, 150, 200, 250 μM, compared to control group. How it is done: as §1, with “above.” for “in the following.”, “100” for “70”, “150 μM, 200” for “250”, “250” for “350”, “for” for “for 48,”, “72” for “72 and 96”

Data set [4] concerns Chrysanthemum morifolium. Description: Al ion stimulation of flowering plants for 96 hours, soil culture; flavonoid contents of flowers. To be noted: AlCl3 1.25 mM and 2.5 mM, compared to control group. The procedure:
1. AlCl3 solutions with concentrations of 1.25 mM and 2.5 mM were prepared, respectively. 2. The flowering plants of Chrysanthemum morifolium (adult of Chrysanthemum morifolium) cultured by soil culture together with the soil and flower pots where the plants were located, were immersed in the AlCl3 solutions prepared above. 3. After being immersed for 96 hours, the morphological changes of the plants were observed and the samples of flowers were collected and lyophilized. 4. After the lyophilization, extraction was performed on the flowers of Chrysanthemum morifolium. The extraction method used was water extraction, and the dried flowers and deionized water were mixed at a ratio of 1:20 (g/mL) (i.e., 1 g dry weight of flowers was added to 20 mL of deionized water) to form a mixture. Using a condensing heating system, the mixture was heated to boiling for 90 minutes to complete the extraction and obtain an extract solution. The plant residue in the extract solution was removed by filtration, and then the extract solution was further lyophilized to obtain an extract.

The subject of data set [5] is Chrysanthemum morifolium. The data set can be described thus: Al ion stimulation alone or combined with ultraviolet irradiation, hydroponic culture; flavonoid glycoside contents by HPLC. Particulars: whole plants, compared to control group. The procedure: 1. MS liquid medium was prepared based on the formulation of Table 1 shown above. 2. Different amounts of AlCl3 solution were added to the MS liquid medium prepared above to respectively form MS liquid mediums with AlCl3 final concentrations of 0 μM (control group) and 250 μM for ready for use. 3. Tissue culture seedlings of Chrysanthemum morifolium (young shoot of Chrysanthemum morifolium) were taken out from solid culture tubes. After that, the solid medium on the roots of the plants were washed with water, and the whole plants were inserted into test tubes containing the MS liquid medium with different AlCl3 final concentration prepared above, and the roots of the plant were immersed in the liquid medium. Finally, the above-ground parts of the plants were covered with sealed bags to protect the cuticula on the surfaces of the plant leaves to prevent rapid evapotranspiration of water. 4. […] The plants were then allowed to recover for 1 hour. After the recovery, the morphological changes of the plants were observed and samples of whole plants were collected. Then, the collected samples were lyophilized. 5. After the lyophilization, extraction was performed on the whole plant of Chrysanthemum morifolium. The extraction method used was water extraction, and the dried plant and deionized water were mixed at a ratio of 1:20 (g/mL) (i.e., 1 g dry weight of plant was added to 20 mL of deionized water) to form a mixture. Using a condensing heating system, the mixture was heated to boiling for 90 minutes to complete the extraction and obtain an extract solution. The plant residue in the extract solution was removed by filtration, and then the extract solution was further lyophilized to obtain an extract. 6. High-performance liquid chromatography was performed on the extract mentioned above to determine the contents of luteolin-7-O-β-D-glycoside and […] which belong to flavonoid compounds.

For the next data set, the system named is Ixeris chinensis. Description: Al ion stimulation alone or combined with ultraviolet irradiation, hydroponic culture; total flavonoid content of flowers and pedicels. To be noted: for total flavonoid content: flowers and pedicels, compared to control group. The procedure:
1. MS liquid medium was prepared according to the formulation of Table 1 shown above. 2. Different amounts of AlCl3 solution were added to the MS liquid medium prepared above to respectively form MS liquid mediums with AlCl3 final concentrations of 0 mM (control group) and 1.25 mM for ready for use. 3. […] chinensis plants were sampled from the field. Leaves and pedicels of the above-ground part and root of the under-ground part of the […] chinensis plant were wiped and wash with water and the root were allowed in a form of bare root. After that, the whole plant was inserted into a test tube containing the MS liquid medium with AlCl3 prepared above, and the root of the plant was immersed in the liquid medium. 4. At the 73th hour of the immersion, the plants were irradiated with ultraviolet B for 1 hour. The plants were then allowed to recover for 3 hour. After the recovery, the morphological changes of the plants were observed and samples of flowers and pedicels were collected. Then, the collected samples were lyophilized. 5. The collected flowers and pedicels of the fresh plant were extracted with 30% ethanol and subjected to total flavonoid content analysis.

The test system of data set [6] is Chrysanthemum morifolium. The data set can be described thus: Al ion stimulation alone or combined with ultraviolet irradiation, solid medium culture; total flavonoid content. Particulars: whole plant, compared to control group. How it is done: 1. Different amounts of AlCl3 were added to the formulation of Table 2 shown above to respectively form MS solid mediums with final concentration of 0 μM (control group) and 350 μM for ready for use. 2. A terminal bud of a tissue culture seedling of Chrysanthemum morifolium (young shoot of Chrysanthemum morifolium) was cut and inserted to a solid medium without addition of the stimulation ion. After the plant had grown roots, the root part of the plant having the root with a length of less than 0.5 cm was inserted to the solid medium prepared above to perform the solid medium culture. 4. On the 41st day of the culture, the plants were irradiated with ultraviolet B for 0, 1, 2 and 4 hours, respectively. The plants were then allowed to recover for 3 hours. After the recovery, the morphological changes of the plants were observed and samples of whole plants (plants stimulated by Al ions alone, plants irradiated with 1 hour of ultraviolet alone, and plants stimulated by Al ions and 1, 2, and 4 hours of ultraviolet irradiation were obtained) were collected. After that, the collected samples were lyophilized. 5. After the lyophilization, extraction was performed on the whole plant. […] Quantitative analysis of total flavonoids was performed on the extracts mentioned above.

The subject of data set [7] is Chrysanthemum morifolium. The data set can be described thus: Cu ion stimulation alone or combined with ultraviolet irradiation, hydroponic culture; flavonoid glycoside contents by HPLC. Particulars: whole plants, compared to control group.
[8] abbreviates: AlCl3 250 μM plus ultraviolet B 1 hour at 97th hour, recovery 1 hour.
Where [9] appears, read: CuSO4 250 μM plus ultraviolet B 1 hour at 97th hour, recovery 1 hour.

Take `O=S(=O)([O-])[O-].[Zn+2]` [Zn ions, ZnSO4]: in the data set with Chrysanthemum morifolium [1], the “content of apigenin-7-O-β-D-glycoside” value is “significantly increased about sevenfold to eightfold” and the “content of luteolin-7-O-β-D-glycoside” value was “significantly increased about sevenfold to eightfold”.
Regarding `[Cl][Al]([Cl])[Cl]` [Al ions, AlCl3], the “content of apigenin-7-O-β-D-glycoside” value with Chrysanthemum morifolium [2] is “significantly increased”; in the data set on Chrysanthemum morifolium [3] it was “significantly increased about twofold to threefold”; with Chrysanthemum morifolium [4], “significantly increased”; with Chrysanthemum morifolium [5] (setting [8]), “about 40 fold”; in the data set on Chrysanthemum morifolium [5] (AlCl3 250 μM, Al ions alone) it was “increased”. Also, the “content of luteolin-7-O-β-D-glycoside” value was “significantly increased” in the data set on Chrysanthemum morifolium [2]; “significantly increased about twofold to threefold” in the data set on Chrysanthemum morifolium [3]; “significantly increased” in the data set on Chrysanthemum morifolium [4]; “about 40 fold” in the data set with Chrysanthemum morifolium [5] (setting [8]); “increased” in the data set on Chrysanthemum morifolium [5] (AlCl3 250 μM, Al ions alone). Besides, the content of apigenin entry in the data set with Chrysanthemum morifolium [4] is “significantly increased”. Also, the “appearance of plants before and after the ultraviolet irradiation, under Al ion stimulation” value with Ixeris chinensis (AlCl3 1.25 mM, ultraviolet B 1 hour) is “no significant difference”. Also, the total flavonoid content result is listed as “about 3.5 fold” in the data set with Ixeris chinensis (AlCl3 1.25 mM plus ultraviolet B 1 hour at 73th hour, recovery 3 hour); “increased” in the data set on Ixeris chinensis (AlCl3 1.25 mM, Al ions alone); “increased” with Chrysanthemum morifolium [6] (AlCl3 350 μM plus ultraviolet B 1, 2, 4 hours on 41st day, recovery 3 hours); “increased” with Chrysanthemum morifolium [6] (AlCl3 350 μM, Al ions alone).
As to `O=S(=O)([O-])[O-].[Cu+2]` [Cu ions, CuSO4], in the data set with Chrysanthemum morifolium [7] (setting [9]), the “content of apigenin-7-O-β-D-glycoside” value was “about 37 fold” and the “content of luteolin-7-O-β-D-glycoside” value was “about 37 fold”. For the same compound, in the data set on Chrysanthemum morifolium [7] (CuSO4 250 μM, Cu ions alone), the “content of apigenin-7-O-β-D-glycoside” value was “increased” and the “content of luteolin-7-O-β-D-glycoside” value is reported as “increased”.
